Active and inactive are the calls of the source. The calls are words filed in the database; no cut-off is given here.
Tests used:
CDK2/Cyclin A2 = CDK2/Cyclin A2 (Homo sapiens, UniProt P24941); assay: Inhibition of CDK2/Cyclin A2 (unknown origin) preincubated for 10 mins followed by substrate/ATP measured after 60 mins by ADP-Glo assay; format: protein-complex assay
[1] = Metabolic stability in human liver S9 fraction assessed as half life measured for 5 to 60 mins by LC-MS/MS analysis; format: ADME, subcellular; details: time 5-60 min
[2] = Metabolic stability in mouse liver microsomes assessed as clearance measured for 5 to 60 mins by LC-MS/MS analysis; format: ADME, Microsome; details: time 5-60 min, read-out: CLH
[3] = Metabolic stability in pig liver microsomes assessed as clearance measured for 5 to 60 mins by LC-MS/MS analysis; format: ADME, Sus scrofa, Microsome; details: time 5-60 min, read-out: CLH
[4] = AUC (0 to infinity) in Sprague-Dawley rat at 2 mg/kg, iv; format: ADME, organism-based; details: in vivo
[5] = Half life in Sprague-Dawley rat at 2 mg/kg, iv; format: ADME, organism-based; details: in vivo
[6] = Clearance in BALB/c mouse at 2 mg/kg, iv; format: ADME, organism-based; details: in vivo
[7] = AUC (0 to t) in BALB/c mouse at 15 mg/kg, po; format: ADME, organism-based; details: in vivo
[8] = Clearance in BALB/c mouse at 15 mg/kg, po; format: ADME, organism-based; details: in vivo
[9] = Drug concentration in lung of BALB-c nude mouse xenografted with human NCI-H1975 cells at 15 mg/kg, iv measured after 30 mins by LC-MS/MS analysis; format: ADME, organism-based; details: read-out: Ct
[10] = target: CDK9/cyclin T1 (Homo sapiens) (UniProt O60563+P50750); assay: Inhibition of CDK9/cyclin T1 (unknown origin) at 100 nM preincubated for 10 mins followed by substrate/ATP measured after 60 mins by ADP-Glo assay relative to control; format: protein-complex assay; details: time 70.0 min
[11] = target: Homeodomain-interacting protein kinase 2 (Homo sapiens) (UniProt Q9H2X6); assay: Inhibition of HIPK2 (unknown origin) at 100 nM preincubated for 10 mins followed by substrate/ATP measured after 60 mins by ADP-Glo assay relative to control; details: time 70.0 min
Homeodomain-interacting protein kinase 2 (Homo sapiens), sequence (Q9H2X6 whole entry, looked up): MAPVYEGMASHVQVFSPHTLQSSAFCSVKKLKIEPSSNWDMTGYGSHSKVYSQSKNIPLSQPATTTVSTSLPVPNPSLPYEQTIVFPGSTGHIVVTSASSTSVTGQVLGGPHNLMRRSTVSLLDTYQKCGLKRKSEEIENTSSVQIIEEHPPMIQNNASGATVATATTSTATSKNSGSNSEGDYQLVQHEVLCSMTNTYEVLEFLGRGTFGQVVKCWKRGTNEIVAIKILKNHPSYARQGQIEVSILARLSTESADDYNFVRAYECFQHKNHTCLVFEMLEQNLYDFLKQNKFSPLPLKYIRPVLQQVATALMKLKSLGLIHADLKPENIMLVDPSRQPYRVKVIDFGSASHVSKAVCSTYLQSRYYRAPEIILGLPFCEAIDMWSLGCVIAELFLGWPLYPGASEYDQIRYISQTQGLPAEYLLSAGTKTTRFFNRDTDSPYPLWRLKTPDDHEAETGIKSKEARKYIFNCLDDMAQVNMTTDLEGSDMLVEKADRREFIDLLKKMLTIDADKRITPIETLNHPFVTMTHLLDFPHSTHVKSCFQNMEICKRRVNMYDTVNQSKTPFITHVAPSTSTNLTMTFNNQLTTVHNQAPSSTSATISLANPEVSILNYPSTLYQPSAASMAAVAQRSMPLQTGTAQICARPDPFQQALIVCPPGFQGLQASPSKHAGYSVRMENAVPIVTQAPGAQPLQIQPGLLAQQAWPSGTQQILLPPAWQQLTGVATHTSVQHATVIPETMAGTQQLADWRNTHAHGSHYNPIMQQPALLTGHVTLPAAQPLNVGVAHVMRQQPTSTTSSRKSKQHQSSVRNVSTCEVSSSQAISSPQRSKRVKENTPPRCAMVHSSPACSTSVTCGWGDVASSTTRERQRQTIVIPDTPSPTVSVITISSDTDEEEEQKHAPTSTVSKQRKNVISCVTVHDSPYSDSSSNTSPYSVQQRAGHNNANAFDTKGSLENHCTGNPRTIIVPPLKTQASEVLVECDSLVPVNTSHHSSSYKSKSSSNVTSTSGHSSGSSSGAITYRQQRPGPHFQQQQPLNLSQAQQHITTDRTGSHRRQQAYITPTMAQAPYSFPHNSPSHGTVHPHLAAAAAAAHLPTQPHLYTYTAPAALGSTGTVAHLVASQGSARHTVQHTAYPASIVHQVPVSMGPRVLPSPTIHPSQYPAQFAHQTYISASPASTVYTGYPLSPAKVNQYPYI

[12] = target: Homeodomain-interacting protein kinase 1 (Homo sapiens) (UniProt Q86Z02); assay: Inhibition of HIPK1 (unknown origin) at 100 nM preincubated for 10 mins followed by substrate/ATP measured after 60 mins by ADP-Glo assay relative to control; details: time 70.0 min
Homeodomain-interacting protein kinase 1 (Homo sapiens), sequence (Q86Z02 whole entry, looked up): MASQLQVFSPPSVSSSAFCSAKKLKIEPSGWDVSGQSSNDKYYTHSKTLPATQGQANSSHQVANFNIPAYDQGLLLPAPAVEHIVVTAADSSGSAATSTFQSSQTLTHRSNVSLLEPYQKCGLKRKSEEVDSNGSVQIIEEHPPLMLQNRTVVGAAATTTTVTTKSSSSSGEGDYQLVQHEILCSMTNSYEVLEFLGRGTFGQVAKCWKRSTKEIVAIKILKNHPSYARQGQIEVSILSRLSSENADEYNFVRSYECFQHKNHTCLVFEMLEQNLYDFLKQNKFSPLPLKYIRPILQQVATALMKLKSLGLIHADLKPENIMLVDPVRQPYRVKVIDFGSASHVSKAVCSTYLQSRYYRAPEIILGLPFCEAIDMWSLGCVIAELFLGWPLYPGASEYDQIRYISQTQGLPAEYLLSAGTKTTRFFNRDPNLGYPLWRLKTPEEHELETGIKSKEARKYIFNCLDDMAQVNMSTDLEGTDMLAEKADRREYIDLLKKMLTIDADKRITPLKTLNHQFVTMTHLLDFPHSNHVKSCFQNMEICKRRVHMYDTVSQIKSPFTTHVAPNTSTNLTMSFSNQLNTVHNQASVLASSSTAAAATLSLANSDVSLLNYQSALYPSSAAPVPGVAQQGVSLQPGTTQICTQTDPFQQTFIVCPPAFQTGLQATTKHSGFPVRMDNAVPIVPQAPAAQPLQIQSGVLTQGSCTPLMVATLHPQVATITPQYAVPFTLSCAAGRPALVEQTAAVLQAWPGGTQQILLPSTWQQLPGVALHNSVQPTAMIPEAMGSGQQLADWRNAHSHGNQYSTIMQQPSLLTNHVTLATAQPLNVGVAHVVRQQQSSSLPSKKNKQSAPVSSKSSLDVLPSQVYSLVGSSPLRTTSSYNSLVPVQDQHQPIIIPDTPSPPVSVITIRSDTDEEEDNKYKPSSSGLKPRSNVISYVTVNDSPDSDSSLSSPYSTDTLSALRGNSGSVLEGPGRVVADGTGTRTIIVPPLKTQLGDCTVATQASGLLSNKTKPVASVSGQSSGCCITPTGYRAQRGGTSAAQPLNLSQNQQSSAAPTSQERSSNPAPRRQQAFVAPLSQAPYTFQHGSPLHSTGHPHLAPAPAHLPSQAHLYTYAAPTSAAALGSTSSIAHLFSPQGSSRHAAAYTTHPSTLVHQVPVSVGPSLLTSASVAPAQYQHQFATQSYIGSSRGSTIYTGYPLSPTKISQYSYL

[13] = target: Homeodomain-interacting protein kinase 4 (Homo sapiens) (UniProt Q8NE63); assay: Inhibition of HIPK4 (unknown origin) at 100 nM preincubated for 10 mins followed by substrate/ATP measured after 60 mins by ADP-Glo assay relative to control; details: time 70.0 min
Homeodomain-interacting protein kinase 4 (Homo sapiens), sequence (Q8NE63 whole entry): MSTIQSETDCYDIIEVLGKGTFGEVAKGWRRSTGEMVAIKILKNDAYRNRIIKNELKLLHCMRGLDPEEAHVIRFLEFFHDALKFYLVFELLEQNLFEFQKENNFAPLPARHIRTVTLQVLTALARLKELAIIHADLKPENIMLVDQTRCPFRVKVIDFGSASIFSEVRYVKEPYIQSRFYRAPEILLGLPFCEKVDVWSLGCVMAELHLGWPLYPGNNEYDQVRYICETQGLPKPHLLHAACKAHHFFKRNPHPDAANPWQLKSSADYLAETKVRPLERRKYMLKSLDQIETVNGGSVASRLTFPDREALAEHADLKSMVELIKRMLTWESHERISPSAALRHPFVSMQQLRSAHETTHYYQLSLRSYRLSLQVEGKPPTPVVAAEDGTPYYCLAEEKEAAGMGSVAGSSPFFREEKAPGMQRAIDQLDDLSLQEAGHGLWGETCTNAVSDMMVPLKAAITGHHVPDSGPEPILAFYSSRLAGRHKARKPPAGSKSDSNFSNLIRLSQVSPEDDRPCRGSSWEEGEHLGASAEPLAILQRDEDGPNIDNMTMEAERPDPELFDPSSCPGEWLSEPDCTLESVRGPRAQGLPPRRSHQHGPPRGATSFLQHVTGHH

[14] = target: CDK3/Cyclin E (Homo sapiens) (UniProt P24864+Q00526); assay: Inhibition of CDK3/Cyclin E1 (unknown origin) at 100 nM preincubated for 10 mins followed by substrate/ATP measured after 60 mins by ADP-Glo assay relative to control; format: protein-complex assay; details: time 70.0 min
CDK3/Cyclin E (Homo sapiens), sequence (P24864 whole entry, looked up): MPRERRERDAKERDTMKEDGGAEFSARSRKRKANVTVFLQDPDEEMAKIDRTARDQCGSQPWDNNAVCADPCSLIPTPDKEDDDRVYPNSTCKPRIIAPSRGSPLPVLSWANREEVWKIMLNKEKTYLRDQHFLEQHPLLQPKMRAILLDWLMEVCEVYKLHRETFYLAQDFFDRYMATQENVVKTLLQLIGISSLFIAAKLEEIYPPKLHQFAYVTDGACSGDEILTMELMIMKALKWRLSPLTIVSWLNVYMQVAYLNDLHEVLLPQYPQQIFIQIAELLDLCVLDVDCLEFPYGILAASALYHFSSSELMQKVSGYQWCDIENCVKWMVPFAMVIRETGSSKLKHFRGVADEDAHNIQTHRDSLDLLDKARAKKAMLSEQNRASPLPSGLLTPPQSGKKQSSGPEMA
CDK3/Cyclin E (Homo sapiens), sequence (Q00526 whole entry, looked up): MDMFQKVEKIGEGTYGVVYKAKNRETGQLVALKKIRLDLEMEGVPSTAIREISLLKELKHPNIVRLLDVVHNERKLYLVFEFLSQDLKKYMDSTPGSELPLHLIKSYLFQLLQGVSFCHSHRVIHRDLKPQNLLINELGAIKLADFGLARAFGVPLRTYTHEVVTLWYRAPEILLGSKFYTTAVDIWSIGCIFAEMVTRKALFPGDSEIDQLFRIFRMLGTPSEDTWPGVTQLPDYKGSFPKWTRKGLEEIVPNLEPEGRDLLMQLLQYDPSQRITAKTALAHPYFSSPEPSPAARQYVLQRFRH

[15] = target: CDK6/cyclin D1 (Homo sapiens) (UniProt P24385+Q00534); assay: Inhibition of CDK6/Cyclin D1(unknown origin) at 100 nM preincubated for 10 mins followed by substrate/ATP measured after 60 mins by ADP-Glo assay relative to control; format: protein-complex assay; details: time 70.0 min
NCI-H1299 = assay: Anti-proliferative activity against human NCI-H1299 cells assessed as cell inhibition measured after 72 hrs by MTT assay; format: functional, cell-based; details: NCI-H1299, 72 h
16HBE14o- = assay: Anti-proliferative activity against human 16-HBE cells assessed as cell inhibition measured after 72 hrs by MTT assay; format: functional, cell-based
NCI-H1975 [16] = assay: Anti-proliferative activity against human NCI-H1975 cells assessed as cell inhibition measured after 72 hrs in presence of 250 nM JQ1 by MTT assay; format: functional, cell-based; details: NCI-H1975, 72 h
[17] = Anti-proliferative activity against human Osimertinib-resistant HCC827 cells assessed as cell inhibition measured after 72 hrs in presence of 250 nM JQ1 by MTT assay; format: functional, cell-based
[18] = system: Osimertinib-resistant NCI-H1975 cell; assay: Anti-proliferative activity against human Osimertinib-resistant NCI-H1975 cells assessed as cell inhibition measured after 72 hrs in presence of 500 nM JQ1 by MTT assay; format: functional, cell-based
[19] = system: Osimertinib-resistant NCI-H1975 cell; assay: Anti-proliferative activity against human Osimertinib-resistant NCI-H1975 cells assessed as cell inhibition measured after 72 hrs in presence of 100 nM JQ1 by MTT assay; format: functional, cell-based
[20] = system: Osimertinib-resistant NCI-H1975 cell; assay: Selectivity ratio of IC50 for anti-proliferative activity against human Osimertinib-resistant NCI-H1975 cells to IC50 for anti-proliferative activity against human Osimertinib-resistant NCI-H1975 cells in presence of JQ1; format: functional
[21] = system: Osimertinib-resistant HCC827 cell; assay: Inhibition of colony formation in human Osimertinib-resistant HCC827 cells at 12.5 nM measured after 14 days in presence of JQ1 by crystal violet staining based analysis; format: functional; details: time 14.0 day
[22] = Downregulation of c-Myc level in human Osimertinib-resistant HCC827 cells at 100 nM incubated for 12 hrs in presence of JQ1 by Western blot analysis relative to control; format: functional, Osimertinib-resistant HCC827 cell
[23] = system: Osimertinib-resistant HCC827 cell; assay: Upregulation of c-Myc mRNA level in human Osimertinib-resistant HCC827 cells by RNA-Seq analysis; format: functional, cell-based
[24] = system: Osimertinib-resistant HCC827 cell; assay: Inhibition of chromosome organisation in human Osimertinib-resistant HCC827 cells by KEGG analysis; format: functional, cell-based
[25] = system: Osimertinib-resistant HCC827 cell; assay: Inhibition of cell cycle regulation in human Osimertinib-resistant HCC827 cells by KEGG analysis; format: functional, cell-based
[26] = system: Lung adenocarcinoma organoid; assay: Anti-tumor activity against Osimertinib-resistant patient (#0085)-derived human Lung adenocarcinoma organoid assessed as inhibition of cell viability measured after 96 hrs; format: functional, tissue-based; details: Neoplasm
[27] = system: Lung adenocarcinoma organoid; assay: Anti-tumor activity against Osimertinib-resistant patient (#0416)-derived human Lung adenocarcinoma organoid assessed as inhibition of cell viability measured after 96 hrs relative to control; format: functional, Neoplasm
[28] = system: Osimertinib-resistant HCC827 cell; assay: Antitumor activity against human Osimertinib-resistant HCC827 cells xenografted in BALB-c nude mouse assessed as tumor growth inhibition at 5 mg/kg, iv; format: functional, organism-based
NCI-H1975 [29] = assay: Antitumor activity against human NCI-H1975 cells xenografted in BALB-c nude mouse at 15 mg/kg, iv administered on every two days relative to control; format: functional; details: NCI-H1975, 48 h, read-out: TGI
[30] = Toxicity in BALB-c nude mouse xenografted with human NCI-H1975 cells assessed as pathological damage in liver at 15 mg/kg, iv administered on every two days by H and E staining based analysis; format: organism-based; details: in vivo
[31] = Toxicity in BALB-c nude mouse xenografted with human NCI-H1975 cells assessed as pathological damage in spleen at 15 mg/kg, iv administered on every two days by H and E staining based analysis; format: organism-based; details: in vivo
NCI-H1975 [32] = assay: Antitumor activity against human NCI-H1975 cells xenografted in BALB-c nude mouse assessed as tumor growth inhibition at 5 mg/kg, iv in presence of JQ1 relative to control; format: functional; details: read-out: TGI
[33] = Toxicity in BALB-c mouse xenografted with human Osimertinib-resistant HCC827 cells assessed as decrease in body weight at 5 mg/kg, iv; format: organism-based; details: in vivo
[34] = C0 in Sprague-Dawley rat at 2 mg/kg, iv; details: in vivo

CC(=O)N1CCC(NC(=O)c2ccc3cc2OCCCCCCOc2cc(ccc2F)-c2nc(ncc2F)N3)CC1
IC50 (CDK2/Cyclin A2): 126 nM
half-life [1]: 1.62 h
microsomal CLint [2]: 21.6 µL/min/mg
microsomal CLint [3]: 35.3 µL/min/mg
AUC(0-inf) [4]: 2550 ng·h/mL
half-life [5]: 1.57 h
clearance [6]: 83.3 mL/min/kg
AUC(0-t) [7]: 754 ng·h/mL
CL/F [8]: 350 mL/min/kg
concentration at 0.5 h [9]: 6650 ng/mL
inhibition [10]: 97.3%
inhibition [11]: 96%
inhibition [12]: 88.5%
inhibition [13]: 87.6%
inhibition [14]: 9.68%
inhibition [15]: 33.1%
IC50 (NCI-H1299): 70 nM
IC50 (16HBE14o-): 480 nM
IC50 (NCI-H1975 [16]): 29.7 nM
IC50 [17]: 12.3 nM
IC50 [18]: 4.3 nM
IC50 [19]: 26.8 nM
Ratio IC50 [20]: 10
inhibition [21]: Active
Activity [22]: 100%
Activity [23]: Active
inhibition [24]: Active
inhibition [25]: Active
IC50 [26]: 44.7 nM
Imax [27]: >98%
inhibition [28]: inactive
inhibition in vivo at 15 mg/kg (NCI-H1975 [29]): 65.8%
Activity [30]: Non-toxic
Activity [31]: Non-toxic
inhibition in vivo at 5 mg/kg (NCI-H1975 [32]): 60%
Activity [33]: Non-toxic
C0 [34]: 2527 ng/mL
